Test results taken from patent US9012594B2, “Catalyst and byproduct-free native chemical ligation using cyclic thioester precursors” (Northwestern University, priority 2010, dated 2015).

System: cells
Assay: Cell adhesion on peptide-functionalized hydrogel
Format: cell-based
Conditions: peptide at 1% of the total cysteine groups used for hydrogel formation
Excerpt: The methods of macromonomer and hydrogel formation described herein provide biocompatible macromonomers and hydrogels which are easily modified with bioactive materials to improve functions of encapsulated cells such as supporting cell growth, and the development and secretion of cellular products upon biological stimulus. By “bioactive” we mean a substance that has or cause an effect on in biological samples. In this work, the macromonomers and hydrogels were further functionalized with peptides, although other bioactive materials may be used, such as proteins, growth factors, DNA, RNA. Peptides were functionalized through the Michael addition reaction between 4A-PEG-Cys and maleimide-terminated peptides prior to the cross-linking between 4A-PEG-Cys and 4A-PEG-CThE. This reaction is quantitative and fast, providing a good control over the density of peptides attached to the resulted hydrogel. Such strategy works well, when the physiological effects of peptides on cells can be achieved at low immobilization density.

In the case of “GRGDSPG (maleimide-GRGDSPG-NH2; also: conjugated to 4A-PEG-Cys) [cell adhesion peptide, maleimide-terminated, attached to 4A-PEG-Cys by Michael addition]”, the cell adhesion is reported as “sufficient to support cell adhesion”.
